Data as given in paper PMC7552917, “Systematic exploration of different E3 ubiquitin ligases: an approach towards potent and selective CDK6 degraders” (Chemical Science, 2020).

Columns and labels:
[1] = elog D7.4 by chromatographic (HPLC) method; format: physicochemical; conditions: Polaris C18-A column, pH 7.4, read-out: elog D7.4 (experimental distribution coefficient at pH 7.4)
Description: Supplementary Information: Physical Chemistry
N. Molecular Descriptor Calculation […]
O. Physicochemical Measurements
The determination of the elog D7.4 values was performed by a chromatographic method according to […]
The column was a Polaris C18-A column (2 mm I.D., 50 mm length, 3 μm particle size) from Agilent Technologies. A linear mobile phase gradient was applied with […] TRIS buffer adjusted to pH 7.4 and MeCN. Therefore, the gradient was run from 5% […]
between the runs with a constant flow-rate of 0.8 ml/min and a temperature of 25 °C. The output wavelength of the detector was set to 269.5 nm. In order to calibrate the log D7.4 to the retention time, 6 different drugs with known log D7.4 were dissolved in DMSO and 10 µl were injected […]
Approximately 1 mg of the samples was dissolved in DMSO and 5 µl were injected. Analyses were conducted in duplicates. Subsequently, the mean retention times of the analytes were taken to calculate their log D7.4 values with aid of the calibration line.

CDK4 = target: T1, CDK4 (Homo sapiens, UniProt P11802); assay: CDK4 degradation, western blot of MM.1S cells; format: cell-based; conditions: MM1.S; 0.1 μM, 16 h, MM.1S cells, normalized to DMSO (100%); read-out: D CDK4: remaining CDK4 levels
T1 construct: Percentage values are normalized to DMSO-treated MM.1S cells and the respective loading controls; endogenous in cells; host or cells: MM.1S (human multiple myeloma)
T1 sequence (P11802 whole entry): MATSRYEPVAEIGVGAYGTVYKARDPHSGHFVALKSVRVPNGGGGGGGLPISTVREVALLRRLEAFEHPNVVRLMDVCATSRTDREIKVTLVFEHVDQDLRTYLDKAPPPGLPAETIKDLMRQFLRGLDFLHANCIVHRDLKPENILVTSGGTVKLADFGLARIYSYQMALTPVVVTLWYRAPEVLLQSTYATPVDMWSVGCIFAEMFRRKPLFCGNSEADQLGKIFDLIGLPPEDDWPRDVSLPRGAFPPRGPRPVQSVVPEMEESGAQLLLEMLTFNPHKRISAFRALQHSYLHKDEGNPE
Excerpt: (§1) We determined the concentration of both kinases and CRBN, the latter in order to control the expression of the corresponding ligase. Since IMiDs, such as pomalidomide, cause the degradation of the lymphoid transcription factors Ikaros (IKZF1) and Aiolos (IKZF3) through the involvement of CRBN,[53],[54] this undesired effect was inspected. […] As further characteristics of CDK4/6d, the desired selectivity of CDK6 over CDK4 degradation and the unwanted influence on the IKZF1 concentration were determined. […] Next, we determined the concentration- and time-dependent activity of 11 (Fig. S2, ESI ^†).
(§2) Multiple myeloma, leukaemia, and murine cell lines:
(§3) After respective designated treatments, cells were washed with 1× PBS and lysed in IP lysis buffer (Pierce) containing HALT protease and phosphatase inhibitor cocktail (Thermo Scientific). Sodium dodecyl sulfate-polyacrylamide gel electrophoresis (SDS-PAGE) was performed with 5–20 µg of protein loaded per sample. Gel electrophoresis was carried out at a constant voltage. Proteins were transferred onto Immobilon-P transfer membranes (Millipore). Membranes were blocked with 5% milk in Tris Buffered Saline with 0.05% Tween 20 (TBS-T) followed by overnight incubation at 4 °C with shaking in primary antibodies diluted in 5% BSA in TBS-T. After incubation with respective secondary HRP-conjugated antibodies diluted in 5% milk in TBST, detection of proteins was performed using either WesternBright ECL HRP substrate or WesternBright Sirius HRP substrate (Advansta). Chemiluminescence was detected with ChemiDoc™ XRS+ System (Bio-Rad). For further detection of other proteins on the same membrane, membranes were subjected to incubation in Restore Western Blot Stripping Buffer, followed by re-blocking, and further probing of proteins was […]

CDK6 [2] = target: T2, CDK6 (Homo sapiens, UniProt Q00534); assay: CDK6 degradation, western blot of MM.1S cells; format: cell-based; conditions: MM.1S cells; for Selectivity ratio D CDK4/D CDK6 for the degradation of CDK6 over CDK4 / remaining activity at 0.1 µM: 0.1 μM; for Selectivity ratio D CDK4/D CDK6 for the degradation of CDK6 over CDK4 / remaining activity at 0.1 µM / remaining activity at 1 µM: 16 h; for remaining activity at 0.1 µM / remaining activity at 1 µM: MM1.S, normalized to DMSO (100%), read-out: D CDK6: remaining CDK6 levels
T2 construct: Percentage values are normalized to DMSO-treated MM.1S cells and the respective loading controls; endogenous in cells; host or cells: MM.1S (human multiple myeloma)
T2 sequence (Q00534 whole entry): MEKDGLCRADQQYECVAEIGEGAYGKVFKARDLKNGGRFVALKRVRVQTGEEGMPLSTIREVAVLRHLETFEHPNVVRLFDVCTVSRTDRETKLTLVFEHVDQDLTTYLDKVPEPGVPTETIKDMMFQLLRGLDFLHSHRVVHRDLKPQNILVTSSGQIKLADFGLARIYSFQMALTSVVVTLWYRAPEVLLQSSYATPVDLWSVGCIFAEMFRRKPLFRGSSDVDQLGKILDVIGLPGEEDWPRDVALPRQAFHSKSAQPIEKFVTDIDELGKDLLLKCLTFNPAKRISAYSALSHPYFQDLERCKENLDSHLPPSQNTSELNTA
Excerpt: as §1, §2, §3

IKZF1 = target: T3, IKZF1 (Homo sapiens, UniProt Q13422+Q96SW2); assay: Neosubstrate IKZF1 degradation, western blot of MM.1S cells; format: cell-based; conditions: MM1.S, 16 h, normalized to DMSO (100%), read-out: D IKZF1: remaining IKZF1 levels;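 also: test concentration 0.1 µM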
T3 construct: endogenous in cells; host or cells: MM.1S (human multiple myeloma)
T3 sequence (Q13422 whole entry): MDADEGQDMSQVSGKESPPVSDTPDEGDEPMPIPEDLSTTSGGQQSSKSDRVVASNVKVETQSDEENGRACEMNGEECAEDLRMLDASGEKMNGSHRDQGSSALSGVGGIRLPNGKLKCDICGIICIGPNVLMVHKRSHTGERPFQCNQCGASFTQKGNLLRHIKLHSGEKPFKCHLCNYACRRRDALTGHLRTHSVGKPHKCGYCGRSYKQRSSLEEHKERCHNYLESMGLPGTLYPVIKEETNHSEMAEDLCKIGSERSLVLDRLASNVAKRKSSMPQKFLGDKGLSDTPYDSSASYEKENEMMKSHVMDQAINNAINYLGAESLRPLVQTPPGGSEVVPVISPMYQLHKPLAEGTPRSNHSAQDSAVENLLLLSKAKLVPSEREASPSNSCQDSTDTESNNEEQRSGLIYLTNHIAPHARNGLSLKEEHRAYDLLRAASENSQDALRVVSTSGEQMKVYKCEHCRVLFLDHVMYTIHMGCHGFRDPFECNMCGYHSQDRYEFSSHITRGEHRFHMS
T3 sequence (Q96SW2 whole entry): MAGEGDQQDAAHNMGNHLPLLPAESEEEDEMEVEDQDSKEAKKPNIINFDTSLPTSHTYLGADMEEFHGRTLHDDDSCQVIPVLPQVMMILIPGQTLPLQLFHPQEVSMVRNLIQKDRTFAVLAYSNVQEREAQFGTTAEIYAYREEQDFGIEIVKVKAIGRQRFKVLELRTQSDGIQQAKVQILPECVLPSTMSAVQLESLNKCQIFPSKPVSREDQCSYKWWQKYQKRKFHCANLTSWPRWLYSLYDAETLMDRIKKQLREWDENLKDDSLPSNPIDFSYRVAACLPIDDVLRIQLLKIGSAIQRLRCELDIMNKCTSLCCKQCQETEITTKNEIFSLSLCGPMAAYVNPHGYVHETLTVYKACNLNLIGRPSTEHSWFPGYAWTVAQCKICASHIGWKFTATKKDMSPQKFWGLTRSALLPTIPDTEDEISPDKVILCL
T3 sequence (Q16531 whole entry partner): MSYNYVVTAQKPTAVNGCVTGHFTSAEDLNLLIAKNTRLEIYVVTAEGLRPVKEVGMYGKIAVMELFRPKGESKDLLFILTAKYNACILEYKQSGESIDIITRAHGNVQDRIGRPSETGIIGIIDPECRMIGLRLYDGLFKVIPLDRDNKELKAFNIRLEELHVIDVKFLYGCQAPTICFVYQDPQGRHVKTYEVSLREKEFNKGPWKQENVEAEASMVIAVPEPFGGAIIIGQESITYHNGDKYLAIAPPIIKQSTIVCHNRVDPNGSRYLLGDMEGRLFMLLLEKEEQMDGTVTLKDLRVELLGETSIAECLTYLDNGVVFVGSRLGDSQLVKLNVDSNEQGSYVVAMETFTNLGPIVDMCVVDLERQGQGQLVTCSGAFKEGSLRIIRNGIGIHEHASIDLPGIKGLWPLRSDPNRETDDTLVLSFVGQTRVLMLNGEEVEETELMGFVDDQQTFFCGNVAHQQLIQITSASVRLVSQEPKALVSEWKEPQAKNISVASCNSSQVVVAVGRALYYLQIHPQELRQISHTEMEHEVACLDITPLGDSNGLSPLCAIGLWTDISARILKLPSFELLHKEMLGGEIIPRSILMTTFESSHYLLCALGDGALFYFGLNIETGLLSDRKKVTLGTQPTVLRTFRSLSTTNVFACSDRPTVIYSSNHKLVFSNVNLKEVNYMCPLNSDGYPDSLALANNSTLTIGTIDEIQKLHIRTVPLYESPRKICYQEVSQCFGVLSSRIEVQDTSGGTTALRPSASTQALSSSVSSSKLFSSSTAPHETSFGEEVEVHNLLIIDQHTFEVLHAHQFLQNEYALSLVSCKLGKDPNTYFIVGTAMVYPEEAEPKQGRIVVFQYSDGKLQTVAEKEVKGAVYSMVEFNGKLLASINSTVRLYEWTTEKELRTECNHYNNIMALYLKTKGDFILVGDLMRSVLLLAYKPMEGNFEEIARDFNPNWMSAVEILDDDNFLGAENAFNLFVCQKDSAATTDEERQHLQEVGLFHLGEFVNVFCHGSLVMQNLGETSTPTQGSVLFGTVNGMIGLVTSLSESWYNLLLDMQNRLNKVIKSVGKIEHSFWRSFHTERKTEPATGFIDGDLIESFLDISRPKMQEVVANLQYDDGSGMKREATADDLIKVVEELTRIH
Excerpt: as §1, §2, §3

CDK6 [3] = target: T4, CDK6 (Mus musculus, UniProt Q64261); assay: CDK6 degradation in murine cell lines 32D and Ba/F3, western blot; format: cell-based; conditions: 16 h
T4 construct: western blotting experiments with the murine myeloid 32D cell line and the murine pro-B-cell line Ba/F3; endogenous in cells; host or cells: 32D (murine myeloid) and Ba/F3 (murine pro-B)
T4 sequence (Q64261 whole entry): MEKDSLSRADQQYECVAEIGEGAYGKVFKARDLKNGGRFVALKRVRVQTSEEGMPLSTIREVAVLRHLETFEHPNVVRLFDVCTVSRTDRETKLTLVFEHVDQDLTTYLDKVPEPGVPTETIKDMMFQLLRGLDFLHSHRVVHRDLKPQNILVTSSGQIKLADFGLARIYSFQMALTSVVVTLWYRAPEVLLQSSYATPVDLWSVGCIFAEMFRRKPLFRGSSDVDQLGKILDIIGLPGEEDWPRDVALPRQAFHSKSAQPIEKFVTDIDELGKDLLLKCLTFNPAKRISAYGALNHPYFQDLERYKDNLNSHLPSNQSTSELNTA
Excerpt: When bound to IMiDs, human CRBN induces the recruitment of the neosubstrates IKZF1 and IKZF3 via a Val-388 interaction,[53],[55] leading to their subsequent proteasomal degradation. […] The previously reported BRD4 degrader dBET1 was capable of binding to murine CRBN and performed as an active PROTAC in murine cells.[57],[58] To test whether our CRBN-based degrader 11 maintains CDK6 degradation across different species, we performed western blotting experiments with the murine myeloid 32D cell line and the murine pro-B-cell line Ba/F3 (Fig. 2A). […] While the activity of BSJ-03-123 (8) was attenuated at this concentration, 11 mediated on-target effects at concentrations as low as 10 nM (Fig. 2B).
Fig. 2 CDK6 degradation by CRBN-based degrader 11 is conserved in murine cell lines. (A) Human cell lines MM.1S and murine cell lines 32D and Ba/F3 were treated with vehicle, pomalidomide (POM), CDK6-selective degrader BSJ-03-123 (8), negative control 21, or PROTAC 11 at 0.1 μM for 16 h; (B) CDK6-degradation is induced in a dose-dependent manner in murine cells. Murine cell lines 32D and Ba/F3 were treated with PROTAC 11 at indicated concentrations for 16 h.
as §2
After respective designated treatments, cells were washed with 1× PBS and lysed in IP lysis buffer (Pierce) containing HALT protease and phosphatase inhibitor cocktail (Thermo Scientific). Sodium dodecyl sulfate-polyacrylamide gel electrophoresis (SDS-PAGE) was performed with 5–20 µg of protein loaded per sample. Gel electrophoresis was carried out at a constant voltage. Proteins were transferred onto Immobilon-P transfer membranes (Millipore). Membranes were blocked with 5% milk in Tris Buffered Saline with 0.05% Tween 20 (TBS-T) followed by overnight incubation at 4 °C with shaking in primary antibodies diluted in 5% BSA in TBS-T. After incubation with respective secondary HRP-conjugated antibodies diluted in 5% milk in TBST, detection of proteins was performed using either WesternBright ECL HRP substrate or WesternBright Sirius HRP substrate (Advansta). Chemiluminescence was detected with ChemiDoc™ XRS+ System (Bio-Rad). For further detection of other proteins on the same membrane, membranes were subjected to incubation in Restore Western Blot Stripping Buffer, followed by re-blocking, and further probing of proteins was carried out. Quantification was performed using ImageJ (National Institutes of Health). […]

[4] = Susceptibility to hydrolysis in buffer, LC/MS; format: physicochemical; conditions: 37 °C
Description: Next, we investigated the persistence of CDK6 degradation after single drug exposure. […] The differences were even more pronounced when conducting a drug washout-step, showing that while BSJ-03-123 kept CDK6 protein below 50% for a maximum of 6 h, CDK6 degradation mediated by PROTACs 27 and 34 was more persistent and stable for up to 72 h (Fig. 4E and S10, ESI ^†). […] Since these degraders mainly differ in the ligase-binding part, we hypothesized that the deviations in the long-term experiments (Fig. 5A) are due to chemical inactivation of the CRBN ligand. We then tested compounds 27, 34 (VHL-based) and BSJ-03-123 (8, CRBN-based) for susceptibility to hydrolysis. These PROTACs were incubated in two different buffers for 24 h at 37 °C and aliquots were analysed by LC/MS.
Fig. 5 (A) Quantification of long-term treatment experiments (see Fig. S9, ESI ^†) and (B) drug stability data at pH 1 and pH 7.4. Acetonitrile solutions of the PROTACs were mixed with two different buffers and incubated for 24 hours at 37 °C. Subsequently, aliquots were analysed by LC/MS and normalized to acetonitrile solutions.

[5] = set-up: method as in earlier work; conditions: calibration compounds; cited from earlier work
MDA-MB-231 cells = assay: Cell viability assay (CellTiter-Glo), MDA-MB-231 breast cancer cells; format: cell-based, human; conditions: 96 h
Description: Breast cancer cell lines:
To access the compound effect on cell viability, cells were plated in 384-well tissue culture-treated plates (Greiner Bio One). Twenty-four hours later, tested compounds were added into culture to the desired concentrations. Cell viability was measured by using CellTiter-Glo® Luminescent Cell Viability Assay (Promega) at day 4 or day 7 post-treatment and normalized by non-treated controls. […]
Dose response curves were modeled and plotted by using GraphPad Prism software (GraphPad Software). Statistical analysis was performed using GraphPad Prism software (GraphPad Software).
Variance of biological replicates is represented as the standard error of the mean (SEM) or as the […]

| SMILES | chromatographic logD [1] | remaining activity at 0.1 µM (CDK4) [%] | Selectivity ratio D CDK4/D CDK6 for the degradation of CDK6 over CDK4 (CDK6 [2]) | remaining activity at 0.1 µM (CDK6 [2]) [%] | remaining activity at 0.1 µM (IKZF1) [%] | other results |
| --- | --- | --- | --- | --- | --- | --- |
| CC(=O)c1c(C)c2cnc(Nc3ccc(N4CCN(CCOCCOCCOCCNC(=O)COc5cccc6c5C(=O)N(C5CCC(=O)NC5=O)C6=O)CC4)cn3)nc2n(C2CCCC2)c1=O (stereo not drawn) [8 (BSJ-03-123), BSJ-03-123, reference compound] | 2.5 | 27 | 4.9 | 5.5 | 82 | remaining activity at 1 µM (CDK6 [2]): 2.1%; Time CDK6 degradation persists (CDK6 protein below 50%) after drug washout (CDK6 [2]; 0.1 μM for 16 h, then washout with PBS): ≤ 6 h; Persistence of CDK6 degradation after single drug exposure (long-term treatment) (CDK6 [2]; no washout): began to recover after 24 h; CDK6 degradation in murine cells (CDK6 [3]; 32D and Ba/F3 cells, 0.1 μM): attenuated; Stability to hydrolysis at pH 1 ([4]; buffer pH 1, 24 h): stable; Stability to hydrolysis at pH 7.4 ([4]; buffer pH 7.4, 24 h): pronounced decomposition |
| COc1ccc([C@@H]2Sc3ccccc3N(CCN(C)C)C(=O)[C@@H]2OC(C)=O)cc1 [Diltiazem] |  |  |  |  |  | Lit. log D7.4 [5]: 2.70 |
| COCCc1ccc(OCC(O)CNC(C)C)cc1 (stereo not drawn) [Metoprolol] |  |  |  |  |  | Lit. log D7.4 [5]: –0.06 |
| CC1(C)C(C=C(Cl)Cl)C1C(=O)OCc1cccc(Oc2ccccc2)c1 (stereo not drawn) [Permethrin] |  |  |  |  |  | Lit. log D7.4 [5]: 6.50 |
| CC(=O)c1c(C)c2cnc(Nc3ccc(N4CCN(C(=O)CCCCCNc5cccc6c5C(=O)N(C5CCC(=O)NC5=O)C6=O)CC4)cn3)nc2n(C2CCCC2)c1=O (stereo not drawn) [compound 11] | 3.4 | 25 | 2.3 | 11 | 1 | CDK6 degradation in murine cells (CDK6 [3]; 32D and Ba/F3 cells, 0.1 μM): induced strong CDK6 degradation; Lowest concentration mediating on-target effects (CDK6 degradation) in murine cells (CDK6 [3]; 32D and Ba/F3 cells): 10 nM |

Further lines, with some results ahead:

| chromatographic logD [1] | remaining activity at 0.1 µM (CDK4) [%] | Selectivity ratio D CDK4/D CDK6 for the degradation of CDK6 over CDK4 (CDK6 [2]) | remaining activity at 0.1 µM (CDK6 [2]) [%] | remaining activity at 0.1 µM (IKZF1) [%] | SMILES | other results |
| --- | --- | --- | --- | --- | --- | --- |
| 5.4 | > 95 |  | 51 | 35 | CC(=O)c1c(C)c2cnc(Nc3ccc(N4CCN(C(=O)CCCCCOCCCCOCCCCOCCCCOCCCCCCNc5cccc6c5C(=O)N(C5CCC(=O)NC5=O)C6=O)CC4)cn3)nc2n(C2CCCC2)c1=O (stereo not drawn) [compound 19] |  |
| 3.7 | 86 | 5.4 | 16 | 5.8 | CC(=O)c1c(C)c2cnc(Nc3ccc(N4CCN(C(=O)CCCCCOCCOCCOCCOCCOCCOCCCCCCNc5cccc6c5C(=O)N(C5CCC(=O)NC5=O)C6=O)CC4)cn3)nc2n(C2CCCC2)c1=O (stereo not drawn) [compound 20] |  |
| 3.6 | 95 |  | > 95 | 93 | CC(=O)c1c(C)c2cnc(Nc3ccc(N4CCN(C(=O)CCCCCNc5cccc6c5C(=O)N(C5CCC(=O)N(C)C5=O)C6=O)CC4)cn3)nc2n(C2CCCC2)c1=O (stereo not drawn) [compound 21] |  |
| 3.3 | 12 | 4.1 | 2.9 |  | CC(=O)c1c(C)c2cnc(Nc3ccc(N4CCN(CCCCCCCC(=O)N[C@H](C(=O)N5C[C@H](O)C[C@H]5C(=O)NCc5ccc(-c6scnc6C)cc5)C(C)(C)C)CC4)cn3)nc2n(C2CCCC2)c1=O [compound 22] | remaining activity at 1 µM (CDK6 [2]): 4.1%; CDK6 degradation in murine cells (CDK6 [3]; Ba/F3 and 32D cells, 1 μM): pronounced CDK6 degradation |
| 3.2 | > 95 |  | > 95 |  | CC(=O)c1c(C)c2cnc(Nc3ccc(N4CCN(CCCCCCCC(=O)N[C@H](C(=O)N5C[C@@H](O)C[C@H]5C(=O)NCc5ccc(-c6scnc6C)cc5)C(C)(C)C)CC4)cn3)nc2n(C2CCCC2)c1=O [compound 26] | Inhibitory activity on cell viability relative to palbociclib (MDA-MB-231 cells): inhibitory activity comparable to palbociclib |
| 3 | 82 |  | > 95 |  | CC(=O)c1c(C)c2cnc(Nc3ccc(N4CCN(CCOCCOCCOc5cc(-c6scnc6C)ccc5CNC(=O)[C@@H]5C[C@H](O)CN5C(=O)[C@H](C(C)C)N5Cc6ccccc6C5=O)CC4)cn3)nc2n(C2CCCC2)c1=O [compound 32] | Inhibitory activity on cell viability relative to palbociclib (MDA-MB-231 cells): inhibitory activity comparable to palbociclib |
